Patent US11759455B2, “Substituted 1H-imidazo[4,5-b]pyridin-2(3H)-ones and their use as GLUN2B receptor modulators” (JANSSEN PHARMACEUTICA NV, priority 2016, dated 2023)

The compounds below were run against T1, human GluN1/GluN2B NMDA receptors (Homo sapiens, UniProt Q13224) (assay: Cell-based calcium flux (FLIPR) assay on cloned human NR1/NR2B ion channels expressed in mammalian cells (standard and HTS buffer variants)). Settings: standard assay buffer (0.5 mM MgCl2 dye loading; 137 mM NaCl, 4 mM KCl assay buffer), human GluN1/GluN2B cells, read-out: NR2B IC50 (μM) standard assay.
T1 construct: expressed in transfected cells
T1 sequence (Q13224 27-1484, other chains not shown): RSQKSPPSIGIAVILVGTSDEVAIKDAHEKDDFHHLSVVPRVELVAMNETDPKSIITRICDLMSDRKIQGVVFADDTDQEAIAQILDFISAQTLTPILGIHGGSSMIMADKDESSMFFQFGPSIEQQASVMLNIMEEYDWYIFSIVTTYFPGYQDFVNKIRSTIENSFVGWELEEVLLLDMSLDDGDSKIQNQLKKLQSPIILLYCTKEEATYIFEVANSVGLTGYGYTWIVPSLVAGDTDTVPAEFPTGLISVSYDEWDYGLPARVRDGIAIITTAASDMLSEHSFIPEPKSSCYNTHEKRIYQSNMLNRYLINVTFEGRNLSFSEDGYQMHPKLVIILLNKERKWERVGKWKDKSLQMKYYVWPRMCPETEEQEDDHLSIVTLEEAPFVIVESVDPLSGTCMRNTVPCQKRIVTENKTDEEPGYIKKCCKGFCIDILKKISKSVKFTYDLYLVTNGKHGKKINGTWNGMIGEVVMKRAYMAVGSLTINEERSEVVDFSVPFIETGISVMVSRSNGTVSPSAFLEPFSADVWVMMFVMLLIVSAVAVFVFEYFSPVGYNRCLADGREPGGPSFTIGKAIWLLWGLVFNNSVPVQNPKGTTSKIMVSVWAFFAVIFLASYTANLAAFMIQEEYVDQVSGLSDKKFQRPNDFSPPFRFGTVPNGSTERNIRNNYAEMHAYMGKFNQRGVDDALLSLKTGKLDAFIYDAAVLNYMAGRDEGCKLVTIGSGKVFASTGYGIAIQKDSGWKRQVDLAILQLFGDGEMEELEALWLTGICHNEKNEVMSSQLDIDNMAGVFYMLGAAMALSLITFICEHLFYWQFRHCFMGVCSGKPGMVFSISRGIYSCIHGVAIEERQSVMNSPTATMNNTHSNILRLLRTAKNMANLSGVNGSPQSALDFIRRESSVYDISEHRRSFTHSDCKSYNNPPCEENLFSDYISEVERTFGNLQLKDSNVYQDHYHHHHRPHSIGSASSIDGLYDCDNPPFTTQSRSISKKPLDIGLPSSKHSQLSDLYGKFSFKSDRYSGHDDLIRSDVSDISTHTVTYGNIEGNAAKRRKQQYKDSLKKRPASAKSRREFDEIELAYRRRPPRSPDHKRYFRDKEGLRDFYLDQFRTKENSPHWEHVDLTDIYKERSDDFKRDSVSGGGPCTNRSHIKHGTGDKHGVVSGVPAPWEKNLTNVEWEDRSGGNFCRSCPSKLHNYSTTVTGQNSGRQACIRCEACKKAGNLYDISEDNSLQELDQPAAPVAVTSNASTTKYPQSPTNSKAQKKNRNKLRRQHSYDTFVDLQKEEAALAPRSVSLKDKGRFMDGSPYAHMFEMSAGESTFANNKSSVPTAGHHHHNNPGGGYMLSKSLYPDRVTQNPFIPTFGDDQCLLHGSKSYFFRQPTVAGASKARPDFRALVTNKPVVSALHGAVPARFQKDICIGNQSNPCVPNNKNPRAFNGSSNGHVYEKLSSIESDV
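Further: stable Tet-On inducible cell line, Ca2+ influx triggered by glutamate at about EC40 plus 10 µM glycine, fluorescent dye read-out over 5 min, normalized to control wells.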

IC50 | Structure (SMILES)
0.8 µM | O=c1[nH]c2ncc(-c3cccc(C(F)(F)F)c3)cc2n1CC1(F)COC1 [Example 226, 1-[(3-Fluorooxetan-3-yl)methyl]-6-[3-(trifluoromethyl)phenyl]-3H-imidazo[4,5-b]pyridin-2-one]
0.096 µM | O=c1[nH]c2ncc(-c3cccc(C(F)(F)F)c3)cc2n1Cc1ncccn1 [Example 227, 1-(Pyrimidin-2-ylmethyl)-6-[3-(trifluoromethyl)phenyl]-3H-imidazo[4,5-b]pyridin-2-one]
0.083 µM | O=c1[nH]c2ncc(-c3cccc(C(F)(F)F)c3)cc2n1Cc1ccccn1 [Example 228, 1-(2-Pyridylmethyl)-6-[3-(trifluoromethyl)phenyl]-3H-imidazo[4,5-b]pyridin-2-one]
0.194 µM | O=c1[nH]c2ncc(-c3cccc(C(F)(F)F)c3)cc2n1Cc1ccncc1 [Example 229, 1-(4-Pyridylmethyl)-6-[3-(trifluoromethyl)phenyl]-3H-imidazo[4,5-b]pyridin-2-one]
0.017 µM | O=c1[nH]c2ncc(-c3cccc(C(F)(F)F)c3)cc2n1Cc1cccnc1 [Example 230, 1-(3-Pyridylmethyl)-6-[3-(trifluoromethyl)phenyl]-3H-imidazo[4,5-b]pyridin-2-one]
0.094 µM | Cc1ncc(Cn2c(=O)[nH]c3ncc(-c4cccc(C(F)(F)F)c4)cc32)cn1 [Example 231, 1-[(2-Methylpyrimidin-5-yl)methyl]-6-[3-(trifluoromethyl)phenyl]-3H-imidazo[4,5-b]pyridin-2-one]
0.017 µM | O=c1[nH]c2ncc(-c3cccc(C(F)(F)F)c3)cc2n1Cc1cccnn1 [Example 232, 1-(Pyridazin-3-ylmethyl)-6-[3-(trifluoromethyl)phenyl]-3H-imidazo[4,5-b]pyridin-2-one]
2.83 µM | COc1cccnc1Cn1c(=O)[nH]c2ncc(-c3cccc(C(F)(F)F)c3)cc21 [Example 233, 1-[(3-Methoxy-2-pyridyl)methyl]-6-[3-(trifluoromethyl)phenyl]-3H-imidazo[4,5-b]pyridin-2-one]
1.98 µM | Cc1cnc(Cn2c(=O)[nH]c3ncc(-c4cccc(C(F)(F)F)c4)cc32)c(F)c1 [Example 234, 1-[(3-Fluoro-5-methyl-2-pyridyl)methyl]-6-[3-(trifluoromethyl)phenyl]-3H-imidazo[4,5-b]pyridin-2-one]
> 5 µM | O=c1[nH]c2ncc(-c3cccc(C(F)(F)F)c3)cc2n1Cc1nn[nH]n1 [Example 236, 1-(2H-Tetrazol-5-ylmethyl)-6-[3-(trifluoromethyl)phenyl]-3H-imidazo[4,5-b]pyridin-2-one]
> 10 µM | O=c1[nH]c2ncc(-c3cccc(C(F)(F)F)c3)cc2n1C(F)(F)c1cccnc1 [Example 237, 1-[Difluoro(3-pyridyl)methyl]-6-[3-(trifluoromethyl)phenyl]-3H-imidazo[4,5-b]pyridin-2-one]
0.034 µM | O=C(Cn1c(=O)[nH]c2ncc(-c3cccc(C(F)(F)F)c3)cc21)C1CC1 [Example 239, 1-(2-Cyclopropyl-2-oxo-ethyl)-6-[3-(trifluoromethyl)phenyl]-3H-imidazo[4,5-b]pyridin-2-one]
0.022 µM | CCC(=O)Cn1c(=O)[nH]c2ncc(-c3cccc(C(F)(F)F)c3)cc21 [Example 240, 1-(2-Oxobutyl)-6-[3-(trifluoromethyl)phenyl]-3H-imidazo[4,5-b]pyridin-2-one]
0.093 µM | CC(C)C(=O)Cn1c(=O)[nH]c2ncc(-c3cccc(C(F)(F)F)c3)cc21 [Example 241, 1-(3-Methyl-2-oxo-butyl)-6-[3-(trifluoromethyl)phenyl]-3H-imidazo[4,5-b]pyridin-2-one]
0.15 µM | Cc1cncc(Cn2c(=O)[nH]c3ncc(-c4cccc(C(F)(F)F)c4)cc32)c1 [Example 242, 1-[(5-Methyl-3-pyridyl)methyl]-6-[3-(trifluoromethyl)phenyl]-3H-imidazo[4,5-b]pyridin-2-one]
0.065 µM | O=c1[nH]c2ncc(-c3cccc(C(F)(F)F)c3)cc2n1Cc1csnn1 [Example 243, 1-(Thiadiazol-4-ylmethyl)-6-[3-(trifluoromethyl)phenyl]-3H-imidazo[4,5-b]pyridin-2-one]
1.89 µM | O=c1ccc(Cn2c(=O)[nH]c3ncc(-c4cccc(C(F)(F)F)c4)cc32)c[nH]1 [Example 244, 1-[(6-Oxo-1H-pyridin-3-yl)methyl]-6-[3-(trifluoromethyl)phenyl]-3H-imidazo[4,5-b]pyridin-2-one]
0.349 µM | Cn1c(=O)n(Cc2ccncn2)c2cc(-c3cccc(C(F)(F)F)c3)cnc21 [Example 246, 3-Methyl-1-(pyrimidin-4-ylmethyl)-6-[3-(trifluoromethyl)phenyl]imidazo[4,5-b]pyridin-2-one]

IC50 | Structure (SMILES)
0.133 µM | Cn1c(=O)n(Cc2cncnc2)c2cc(-c3cccc(C(F)(F)F)c3)cnc21 [Example 247, 3-Methyl-1-(pyrimidin-5-ylmethyl)-6-[3-(trifluoromethyl)phenyl]imidazo[4,5-b]pyridin-2-one]
2.05 µM | Cc1nccc(Cn2c(=O)n(C)c3ncc(-c4cccc(C(F)(F)F)c4)cc32)n1 [Example 248, 3-Methyl-1-[(2-methylpyrimidin-4-yl)methyl]-6-[3-(trifluoromethyl)phenyl]imidazo[4,5-b]pyridin-2-one]
0.253 µM | Cn1c(=O)n(Cc2cnccn2)c2cc(-c3cccc(C(F)(F)F)c3)cnc21 [Example 249, 3-Methyl-1-(pyrazin-2-ylmethyl)-6-[3-(trifluoromethyl)phenyl]imidazo[4,5-b]pyridin-2-one]
2 µM | Cn1c(=O)n(Cc2ccncc2)c2cc(-c3cccc(C(F)(F)F)c3)cnc21 [Example 250, 3-Methyl-1-(4-pyridylmethyl)-6-[3-(trifluoromethyl)phenyl]imidazo[4,5-b]pyridin-2-one]
0.8 µM | Cn1c(=O)n(Cc2ccccn2)c2cc(-c3cccc(C(F)(F)F)c3)cnc21 [Example 251, 3-Methyl-1-(2-pyridylmethyl)-6-[3-(trifluoromethyl)phenyl]imidazo[4,5-b]pyridin-2-one]
> 10 µM | COc1ccc(Cn2c(=O)[nH]c3ncc(-c4cccc(C(F)(F)F)c4)cc32)nn1 [Example 252, 1-[(6-Methoxypyridazin-3-yl)methyl]-6-[3-(trifluoromethyl)phenyl]-3H-imidazo[4,5-b]pyridin-2-one]
0.066 µM | O=c1[nH]c2ncc(-c3cccc(C(F)(F)F)c3)cc2n1Cc1cnccn1 [Example 253, 1-(Pyrazin-2-ylmethyl)-6-[3-(trifluoromethyl)phenyl]-3H-imidazo[4,5-b]pyridin-2-one]
0.824 µM | Cc1nccc(Cn2c(=O)[nH]c3ncc(-c4cccc(C(F)(F)F)c4)cc32)n1 [Example 254, 1-[(2-Methylpyrimidin-4-yl)methyl]-6-[3-(trifluoromethyl)phenyl]-3H-imidazo[4,5-b]pyridin-2-one]
0.043 µM | O=c1[nH]c2ncc(-c3cccc(C(F)(F)F)c3)cc2n1Cc1cncnc1 [Example 255, 1-(Pyrimidin-5-ylmethyl)-6-[3-(trifluoromethyl)phenyl]-3H-imidazo[4,5-b]pyridin-2-one]
0.134 µM | O=c1[nH]c2ncc(-c3cccc(C(F)(F)F)c3)cc2n1Cc1ncc(F)cn1 [Example 256, 1-[(5-Fluoropyrimidin-2-yl)methyl]-6-[3-(trifluoromethyl)phenyl]-3H-imidazo[4,5-b]pyridin-2-one]
1.46 µM | O=c1[nH]c2ncc(-c3cccc(C(F)(F)F)c3)cc2n1Cc1ccc(C(F)(F)F)nc1 [Example 257, 6-[3-(Trifluoromethyl)phenyl]-1-[[6-(trifluoromethyl)-3-pyridyl]methyl]-3H-imidazo[4,5-b]pyridin-2-one]
0.077 µM | O=c1[nH]c2ncc(-c3cccc(C(F)(F)F)c3)cc2n1Cc1cncc(F)c1 [Example 258, 1-[(5-Fluoro-3-pyridyl)methyl]-6-[3-(trifluoromethyl)phenyl]-3H-imidazo[4,5-b]pyridin-2-one]
1.03 µM | O=c1[nH]c2ncc(-c3cccc(C(F)(F)F)c3)cc2n1Cc1cncc(C(F)(F)F)c1 [Example 259, 6-[3-(Trifluoromethyl)phenyl]-1-[[5-(trifluoromethyl)-3-pyridyl]methyl]-3H-imidazo[4,5-b]pyridin-2-one]
2.86 µM | O=c1[nH]c2ncc(-c3cccc(C(F)(F)F)c3)cc2n1Cc1cnccc1C(F)(F)F [Example 260, 6-[3-(Trifluoromethyl)phenyl]-1-[[4-(trifluoromethyl)-3-pyridyl]methyl]-3H-imidazo[4,5-b]pyridin-2-one]
0.573 µM | Cn1c(=O)n(Cc2ncccn2)c2cc(-c3cccc(C(F)(F)F)c3)cnc21 [Example 261, 3-Methyl-1-(pyrimidin-2-ylmethyl)-6-[3-(trifluoromethyl)phenyl]imidazo[4,5-b]pyridin-2-one]
0.308 µM | O=C(Cn1c(=O)[nH]c2ncc(-c3cccc(C(F)(F)F)c3)cc21)C1CCC1 [Example 262, 1-(2-cyclobutyl-2-oxo-ethyl)-6-[3-(trifluoromethyl)phenyl]-3H-imidazo[4,5-b]pyridin-2-one]
0.128 µM | Cc1cncc(Cn2c(=O)[nH]c3ncc(-c4ccc(F)c(C)c4)cc32)c1 [Example 269, 6-(4-Fluoro-3-methyl-phenyl)-1-[(5-methyl-3-pyridyl)methyl]-3H-imidazo[4,5-b]pyridin-2-one]
0.115 µM | Cc1cncc(Cn2c(=O)[nH]c3ncc(-c4ccc(F)c(C)c4F)cc32)c1 [Example 270, 6-(2,4-Difluoro-3-methyl-phenyl)-1-[(5-methyl-3-pyridyl)methyl]-3H-imidazo[4,5-b]pyridin-2-one]

Structure (SMILES) | IC50
Cc1ccc(Cn2c(=O)[nH]c3ncc(-c4cccc(C(F)(F)F)c4)cc32)cn1 [Example 235, 1-[(6-Methyl-3-pyridyl)methyl]-6-[3-(trifluoromethyl)phenyl]-3H-imidazo[4,5-b]pyridin-2-one] | 0.256 µM
O=c1[nH]c2ncc(-c3cccc(C(F)(F)F)c3)cc2n1Cc1ccc(F)nc1 [Example 238, 1-[(6-Fluoro-3-pyridyl)methyl]-6-[3-(trifluoromethyl)phenyl]-3H-imidazo[4,5-1D]pyridin-2-one] | 0.088 µM
